Values after ≈ are worked out from the molar mass of the structure shown. Where two headings read alike, the source gives them in different places.
What was measured:
IL-1β production = test: LPS/ATP test in mice, peritoneal IL-1β by ELISA; format: in vivo, BALB/cAJcl mice; details: Mus musculus, LPS/ATP i.p.; for inhibition at 1 mg/kg: 1 mg/kg orally; for inhibition at 3 mg/kg: 3 mg/kg orally
[1] = Solubility (Test F), McIlvaine buffer pH 6.5; format: physicochemical; details: 25 °C, pH 6.5, aqueous buffer, thermodynamic from solid, McIlvaine buffer pH 6.5, 25° C., 24 to 72 h, theoretical maximum 200 μM
Human NLRP3 [2] = target: T1, Human NLRP3 (Homo sapiens (Human), UniProt Q96P20); details: Test C IC50, IL-1β release, THP-1 cells, LPS 2 μg/mL 24 h, BzATP 1 mM
Human NLRP3 [3] = target: T1, Human NLRP3; test: Human NLRP3 speck formation assay (Test A), nigericin triggered ASC-speck formation in ASC-GFP reporter monocytes
Solubility (Test E) = format: physicochemical
hERG = hERG (Homo sapiens (Human), UniProt Q12809); test: hERG assay (Test D), SyncroPatch 384PE patch clamp, hERG-expressing CHO cells; format: cell-based; details: rt
Human NLRP3 [4] = target: T1, Human NLRP3
[5] = disodium hydrogenphosphate-citric acid (McIlvaine) buffer

T1 sequence (Q96P20 whole entry): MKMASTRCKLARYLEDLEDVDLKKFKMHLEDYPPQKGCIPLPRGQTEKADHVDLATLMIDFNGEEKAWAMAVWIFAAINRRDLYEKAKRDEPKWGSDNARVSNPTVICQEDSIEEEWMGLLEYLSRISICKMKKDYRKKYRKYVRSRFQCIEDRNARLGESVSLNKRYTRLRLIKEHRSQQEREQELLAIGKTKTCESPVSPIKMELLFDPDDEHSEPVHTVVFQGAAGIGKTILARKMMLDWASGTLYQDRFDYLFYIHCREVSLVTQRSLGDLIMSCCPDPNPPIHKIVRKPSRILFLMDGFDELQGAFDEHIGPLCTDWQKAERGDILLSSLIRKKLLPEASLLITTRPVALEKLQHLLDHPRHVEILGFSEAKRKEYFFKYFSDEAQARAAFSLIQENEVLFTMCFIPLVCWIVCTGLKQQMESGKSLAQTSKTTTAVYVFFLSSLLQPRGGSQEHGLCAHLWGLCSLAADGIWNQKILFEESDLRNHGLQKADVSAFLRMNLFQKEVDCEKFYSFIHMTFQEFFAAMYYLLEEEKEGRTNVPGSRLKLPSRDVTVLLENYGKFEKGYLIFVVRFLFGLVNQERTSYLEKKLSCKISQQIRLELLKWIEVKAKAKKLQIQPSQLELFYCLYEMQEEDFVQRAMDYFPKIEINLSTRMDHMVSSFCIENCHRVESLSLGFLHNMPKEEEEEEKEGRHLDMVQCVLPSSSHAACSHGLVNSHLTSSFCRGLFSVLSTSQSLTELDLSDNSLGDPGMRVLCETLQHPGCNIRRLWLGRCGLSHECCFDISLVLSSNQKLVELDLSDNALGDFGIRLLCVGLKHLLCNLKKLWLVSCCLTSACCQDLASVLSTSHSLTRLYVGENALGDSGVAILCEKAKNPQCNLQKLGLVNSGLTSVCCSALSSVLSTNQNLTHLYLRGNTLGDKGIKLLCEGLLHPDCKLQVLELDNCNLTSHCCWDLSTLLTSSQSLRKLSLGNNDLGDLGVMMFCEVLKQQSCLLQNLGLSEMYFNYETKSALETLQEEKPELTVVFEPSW
Sequence of hERG (Q12809 whole entry): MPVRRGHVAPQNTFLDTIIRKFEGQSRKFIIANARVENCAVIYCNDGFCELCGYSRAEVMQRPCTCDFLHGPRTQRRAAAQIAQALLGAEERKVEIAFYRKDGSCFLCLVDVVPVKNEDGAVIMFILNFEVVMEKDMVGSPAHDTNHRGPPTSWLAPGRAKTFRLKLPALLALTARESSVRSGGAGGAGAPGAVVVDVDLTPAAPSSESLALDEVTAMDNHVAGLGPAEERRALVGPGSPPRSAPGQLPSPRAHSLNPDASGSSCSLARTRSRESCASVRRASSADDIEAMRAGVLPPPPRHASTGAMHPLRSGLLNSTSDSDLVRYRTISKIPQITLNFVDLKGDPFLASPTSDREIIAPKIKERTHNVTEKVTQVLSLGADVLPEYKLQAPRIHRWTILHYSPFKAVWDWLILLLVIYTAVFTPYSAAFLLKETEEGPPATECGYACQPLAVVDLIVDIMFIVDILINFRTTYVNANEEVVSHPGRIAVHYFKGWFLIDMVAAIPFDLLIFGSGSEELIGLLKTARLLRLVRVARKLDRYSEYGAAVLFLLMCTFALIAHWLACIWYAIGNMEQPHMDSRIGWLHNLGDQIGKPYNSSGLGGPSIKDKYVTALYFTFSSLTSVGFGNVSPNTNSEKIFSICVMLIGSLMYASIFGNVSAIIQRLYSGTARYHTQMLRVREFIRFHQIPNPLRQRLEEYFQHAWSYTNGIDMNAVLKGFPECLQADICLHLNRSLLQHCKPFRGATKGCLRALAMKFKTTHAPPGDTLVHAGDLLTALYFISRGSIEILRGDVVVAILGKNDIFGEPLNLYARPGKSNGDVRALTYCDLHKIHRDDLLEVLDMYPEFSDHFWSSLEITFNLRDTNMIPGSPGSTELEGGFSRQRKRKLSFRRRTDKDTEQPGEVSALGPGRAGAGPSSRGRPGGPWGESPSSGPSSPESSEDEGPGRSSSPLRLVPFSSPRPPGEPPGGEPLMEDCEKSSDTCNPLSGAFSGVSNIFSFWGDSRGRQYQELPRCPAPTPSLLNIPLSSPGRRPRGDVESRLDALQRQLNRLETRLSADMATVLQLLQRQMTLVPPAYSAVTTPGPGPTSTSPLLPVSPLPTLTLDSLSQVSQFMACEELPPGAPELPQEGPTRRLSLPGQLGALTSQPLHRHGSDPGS

Compound | solubility [1, 5] [µg/mL] | IC50 (Human NLRP3 [2]) [nM] | EC50 (Human NLRP3 [3]) [nM] | solubility (Solubility (Test E)) [µM] | IC50 (Human NLRP3 [4]) [nM] | solubility [1] [µg/mL] | inhibition at 1 mg/kg (IL-1β production) [%] | inhibition at 3 mg/kg (IL-1β production) [%] | IC50 (hERG) [nM]
OC[C@@H](O)CNc1nnc(-c2c(O)cc(C(F)(F)F)cc2F)c2ccccc12 [Example 7, (2S)-3-[[4-[2-fluoro-6-hydroxy-4-(trifluoromethyl)phenyl]phthalazin-1-yl]amino]propane-1,2-diol] | 70.3 (≈ 177 µM) | 22 | 180 | 582 (≈ 231 µg/mL) | 47 |  | 46 | 95 | > 40000
OC[C@@H](O)CNc1nnc(-c2c(O)cc(Cl)cc2F)c2ccccc12 [Example 9, (2S)-3-[[4-(4-chloro-2-fluoro-6-hydroxy-phenyl)phthalazin-1-yl]amino]propane-1,2-diol] | 67.3 (≈ 185 µM) | 11 | 164 |  |  |  |  | 77 | 
Cc1ccc2c(-c3ccc(C(F)(F)F)cc3O)nnc(NC[C@H](O)CO)c2c1 [Example 14, (2S)-3-[[4-[2-hydroxy-4-(trifluoromethyl)phenyl]-7-methyl-phthalazin-1-yl]amino]propane-1,2-diol] | 56.3 (≈ 143 µM) | 5 | 18 | 135 (≈ 53.1 µg/mL) |  |  |  | 75 | 
Oc1cc(C(F)(F)F)ccc1-c1nnc(N[C@H]2CCCC[C@H]2O)c2ccccc12 [Example 25, 2-[4-[[(1S,2R)-2-hydroxycyclohexyl]amino]phthalazin-1-yl]-5-(trifluoromethyl)phenol] | 1.8 (≈ 4.46 µM) | 8 | 80 | 3 (≈ 1.21 µg/mL) | 36 |  |  |  | 7400
C[C@@]1(O)CC[C@@H](Nc2nnc(-c3ccc(C(F)(F)F)cc3O)c3ccncc23)C1 [Example 38, 2-[4-[[(1R,3R)-3-hydroxy-3-methyl-cyclopentyl]amino]pyrido[3,4-d]pyridazin-1-yl]-5-(trifluoromethyl)phenol] | > 80.9 | 9 | 27 | 810 (≈ 328 µg/mL) | 16 |  | 29 | 83 | > 40000
C[C@]1(O)CC[C@@H](Nc2nnc(-c3ccc(C(F)(F)F)cc3O)c3ccncc23)C1 [Example 39, 2-[4-[[(1R,3S)-3-hydroxy-3-methyl-cyclopentyl]amino]pyrido[3,4-d]pyridazin-1-yl]-5-(trifluoromethyl)phenol] | 10.2 (≈ 25.2 µM) | 7 | 59 | 48 (≈ 19.4 µg/mL) | 18 |  |  | 58 | 
Oc1cc(C(F)(F)F)ccc1-c1nnc(N[C@@H]2CCC[C@H](O)C2)c2cnccc12 [Example 41, 2-[4-[[(1R,3S)-3-hydroxycyclohexyl]amino]pyrido[3,4-d]pyridazin-1-yl]-5-(trifluoromethyl)phenol] | 8.6 (≈ 21.3 µM) |  |  |  |  |  | 94 | 99 | 
Oc1cc(C(F)(F)F)cc(F)c1-c1nnc(N[C@@H]2CCC[C@H](O)C2)c2cnccc12 [Example 45, 3-fluoro-2-[4-[[(1R,3S)-3-hydroxycyclohexyl]amino]pyrido[3,4-d]pyridazin-1-yl]-5-(trifluoromethyl)phenol] | 10.4 (≈ 24.6 µM) | 9 | 44 | 121 (≈ 51.1 µg/mL) | 25 |  |  | 82 | > 40000
Oc1cc(Cl)cc(F)c1-c1nnc(N[C@@H]2CCC[C@H](O)C2)c2cnccc12 [Example 46, 5-chloro-3-fluoro-2-[4-[[(1R,3S)-3-hydroxycyclohexyl]amino]pyrido[3,4-d]pyridazin-1-yl]phenol] | > 77.8 | 3 | 37 | 941 (≈ 366 µg/mL) |  |  | 23 | 65 | > 40000
Oc1cc(OC(F)(F)F)ccc1-c1nnc(N[C@@H]2CCC[C@H](O)C2)c2cnccc12 [Example 48, 2-[4-[[(1R,3S)-3-hydroxycyclohexyl]amino]pyrido[3,4-d]pyridazin-1-yl]-5-(trifluoromethoxy)phenol] | 80.4 (≈ 191 µM) | 4 | 29 | 326 (≈ 137 µg/mL) | 14 |  |  |  | > 40000

Now from value to compound, other results behind:

solubility [1, 5] [µg/mL] | IC50 (Human NLRP3 [2]) [nM] | EC50 (Human NLRP3 [3]) [nM] | solubility (Solubility (Test E)) [µM] | IC50 (Human NLRP3 [4]) [nM] | solubility [1] [µg/mL] | Compound | inhibition at 1 mg/kg (IL-1β production) [%] | inhibition at 3 mg/kg (IL-1β production) [%] | IC50 (hERG) [nM]
62.5 (≈ 148 µM) | 7 |  |  |  |  | Oc1cc(C(F)(F)F)c(F)cc1-c1nnc(N[C@@H]2CCC[C@H](O)C2)c2cnccc12 [Example 53, 4-fluoro-2-[4-[[(1R,3S)-3-hydroxycyclohexyl]amino]pyrido[3,4-d]pyridazin-1-yl]-5-(trifluoromethyl)phenol] |  | 65 | 
45.7 (≈ 108 µM) | 4 |  |  |  |  | Oc1cc(C(F)(F)F)c(F)cc1-c1nnc(N[C@@H]2CCCC[C@H]2O)c2cnccc12 [Example 54, 4-fluoro-2-[4-[[(1R,2R)-2-hydroxycyclohexyl]amino]pyrido[3,4-d]pyridazin-1-yl]-5-(trifluoromethyl)phenol] |  | 55 | 
8.8 (≈ 20.8 µM) | 6 | 38 | 529 (≈ 223 µg/mL) |  |  | Oc1cc(C(F)(F)F)cc(F)c1-c1nnc(N[C@@H]2CCCC[C@H]2O)c2cnccc12 [Example 55, 3-fluoro-2-[4-[[(1R,2R)-2-hydroxycyclohexyl]amino]pyrido[3,4-d]pyridazin-1-yl]-5-(trifluoromethyl)phenol] |  | 91 | > 40000
14.5 (≈ 34.5 µM) | 3 | 25 | 263 (≈ 111 µg/mL) | 8 |  | Oc1cc(OC(F)(F)F)ccc1-c1nnc(N[C@@H]2CCCC[C@H]2O)c2cnccc12 [Example 56, 2-[4-[[(1R,2R)-2-hydroxycyclohexyl]amino]pyrido[3,4-d]pyridazin-1-yl]-5-(trifluoromethoxy)phenol] |  | 98 | 19000
36.9 (≈ 94.9 µM) | 5 | 17 | 596 (≈ 232 µg/mL) |  |  | Oc1cc(Cl)cc(F)c1-c1nnc(N[C@@H]2CCCC[C@H]2O)c2cnccc12 [Example 57, 5-chloro-3-fluoro-2-[4-[[(1R,2R)-2-hydroxycyclohexyl]amino]pyrido[3,4-d]pyridazin-1-yl]phenol] | 42 | 87 | > 40000
> 78.1 | 5 | 16 | 47 (≈ 18.3 µg/mL) | 9 |  | Oc1cc(C(F)(F)F)ccc1-c1nnc(N[C@@H]2CC[C@@H](O)C2)c2cnccc12 [Example 59, 2-(4-(((1R,3R)-3-hydroxycyclopentyl)amino)pyrido[3,4-d]pyridazin-1-yl)-5-(trifluoromethyl)phenol] | 44 | 70 | > 40000
10.3 (≈ 26.4 µM) | < 3 | 17 | 26 (≈ 10.1 µg/mL) | 12 |  | Oc1cc(C(F)(F)F)ccc1-c1nnc(N[C@@H]2CC[C@H](O)C2)c2cnccc12 [Example 60, 2-(4-(((1R,3S)-3-hydroxycyclopentyl)amino)pyrido[3,4-d]pyridazin-1-yl)-5-(trifluoromethyl)phenol] | 60 | 97 | > 40000
 | 7 | 29 | 389 (≈ 163 µg/mL) |  | 64 (≈ 153 µM) | C[C@@]1(O)CCC[C@@H](Nc2nnc(-c3ccc(C(F)(F)F)cc3O)c3ccncc23)C1 [Example 61, 2-[4-[[(1R,3R)-3-hydroxy-3-methyl-cyclohexyl]amino]pyrido[3,4-d]pyridazin-1-yl]-5-(trifluoromethyl)phenol] |  | 97 | 34000
25.7 (≈ 61.4 µM) | 6 | 60 | 120 (≈ 50.2 µg/mL) |  |  | C[C@]1(O)CCC[C@@H](Nc2nnc(-c3ccc(C(F)(F)F)cc3O)c3ccncc23)C1 [Example 62, 2-[4-[[(1R,3S)-3-hydroxy-3-methyl-cyclohexyl]amino]pyrido[3,4-d]pyridazin-1-yl]-5-(trifluoromethyl)phenol] |  | 71 | > 40000
17.7 (≈ 46.8 µM) | 10 | 67 | 5 (≈ 1.89 µg/mL) | 26 |  | CC(C)(O)CNc1nnc(-c2ccc(C(F)(F)F)cc2O)c2ccncc12 [Example 70, 2-[4-[(2-hydroxy-2-methyl-propyl)amino]pyrido[3,4-d]pyridazin-1-yl]-5-(trifluoromethyl)phenol] |  | 98 | > 40000
12.1 (≈ 30.5 µM) | 18 | 204 | 17 (≈ 6.74 µg/mL) |  |  | CC(C)(O)CNc1nnc(-c2c(O)cc(C(F)(F)F)cc2F)c2ccncc12 [Example 74, 3-fluoro-2-[4-[(2-hydroxy-2-methyl-propyl)amino]pyrido[3,4-d]pyridazin-1-yl]-5-(trifluoromethyl)phenol] |  | 68 | 
4.7 (≈ 12 µM) | 20 | 129 | 47 (≈ 18.3 µg/mL) | 38 |  | Oc1cc(C(F)(F)F)ccc1-c1nnc(N[C@H]2CC[C@@H](O)C2)c2cnccc12 [Example 83, 2-[4-[[(1S,3R)-3-hydroxycyclopentyl]amino]pyrido[3,4-d]pyridazin-1-yl]-5-(trifluoromethyl)phenol] |  |  | > 40000
